Test systems include DLD-1; DMS-273; HOP-18; KM-20L2; LXFL 529; RXF 631; XF498; SNB-78.
What all share (assay): growth of human tumour cells (NCI), 48 h

The structures appear in SMILES notation.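 Growth conditions: 96-well plates. Treatment: test compound, 48 hours, 5 concentrations. Analysis: linear interpolation between bracketing concentrations; unreached endpoints set to highest concentration. Here, GI50 denotes the concentration required for 50% inhibition of growth.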 Active and inactive are the calls of the source. No stated cut-off is given here; in the data, active = GI50 up to about 1.1 µM and inactive = higher.

Data on eleven compounds can be found in ChEMBL document CHEMBL1201862, “PubChem BioAssay data set” (2004).

Regarding `COC(=O)C(=O)C(C(=O)C(=O)Nc1cc([N+](=O)[O-])ccc1C#N)c1nc2ccccc2nc1O` (stereo not given), the GI50 with DLD-1, with DMS-273, in the experiment on HOP-18, in the experiment on KM-20L2, with LXFL 529 and in the experiment on RXF 631 was > 100 µM (inactive) each time. Besides, the GI50 with XF498 was > 100 µM (inactive).

Turning to `Cc1ccc(/C=C2\CCCCC2=O)cc1`, the GI50 with DLD-1 was 49.2 µM (inactive); in the experiment on DMS-273, 40.1 µM (inactive); with HOP-18, 24 µM (inactive); in the experiment with KM-20L2, > 100 µM (inactive); with LXFL 529, 94.6 µM (inactive); in the experiment on RXF 631, > 100 µM (inactive). Further, the GI50 in the experiment on SNB-78 is 73.6 µM (inactive); with XF498, > 100 µM (inactive).

Take `CC(CCc1ccc2c(c1)c(N)c1ccc(N)cc1[n+]2[O-])CC(C)(C)C` (stereo not given): the GI50 in the experiment on DLD-1 is 1.82 µM (inactive); in the experiment with DMS-273, 2.21 µM (inactive); with HOP-18 it was 1.93 µM (inactive); with KM-20L2, 1.37 µM (inactive); with LXFL 529, 1.53 µM (inactive); in the experiment on RXF 631, 1.65 µM (inactive). Also, the results for the GI50 in the experiment on SNB-78 and in the experiment on XF498 were 2.05 µM (inactive) and 1.16 µM (inactive), respectively.

For `CC1=C(C(=O)Nc2ccccc2)C(c2ccc(C(C)C)cc2)C(C(=O)Nc2ccccc2)=C(C)N1`, the GI50 in the experiment with DLD-1 was 17.5 µM (inactive); in the experiment on HOP-18, 19.1 µM (inactive); in the experiment on KM-20L2, 15.2 µM (inactive); in the experiment on LXFL 529, 16.7 µM (inactive); with RXF 631 it was 18.2 µM (inactive); in the experiment with SNB-78 it was 31.5 µM (inactive). Further, in the experiment on XF498, the GI50 is 13.1 µM (inactive).

Consider `CCc1ccccc1NC(=O)CC1NC(=O)CS1` (stereo not given), for which the GI50 with DLD-1, in the experiment on DMS-273, in the experiment with HOP-18, in the experiment on KM-20L2, in the experiment with LXFL 529 and in the experiment with RXF 631 was > 100 µM (inactive) throughout. Moreover, the GI50 in the experiment on SNB-78 and in the experiment on XF498 was > 100 µM (inactive) throughout.

For the compound `CCCOP1(=O)C=C(C)C(Cl)=C(C)C1` (stereo not given), the GI50 in the experiment with DLD-1 is 22.8 µM (inactive); with DMS-273, 14.6 µM (inactive); with HOP-18, 29.4 µM (inactive); in the experiment with KM-20L2, 29.3 µM (inactive); with LXFL 529 it was 20.7 µM (inactive); with RXF 631 it was 37.1 µM (inactive). For the same compound, the GI50 in the experiment with XF498 is 16.5 µM (inactive).

As for `COc1cc2c(cc1O)C1C(O)C(O)C=C3CCN(C2)C31` (stereo not given), the GI50 with DLD-1 was 2.47 µM (inactive); in the experiment with DMS-273, 1.95 µM (inactive); with HOP-18 it was 2.43 µM (inactive); with KM-20L2 it was 2.34 µM (inactive); in the experiment with LXFL 529, 3.18 µM (inactive); in the experiment with RXF 631, 2.97 µM (inactive). The GI50 in the experiment with SNB-78 was 0.565 µM (active); in the experiment on XF498 it was 1.36 µM (inactive).

With `C[C@]12CC[C@H](O)CC1CCC[C@@H]2O` (stereo not given in full), the GI50 in the experiment on DLD-1, in the experiment on DMS-273, in the experiment with LXFL 529, in the experiment on RXF 631, in the experiment with SNB-78 and with XF498 was > 100 µM (inactive) each time.

As to `COC(=O)C1=C(C(=O)OC)C2(c3ccccc3)OC1(c1ccccc1)c1cc3ccccc3cc12`, the GI50 in the experiment on DLD-1 was 1.74 µM (inactive); in the experiment with DMS-273, 1.76 µM (inactive); with HOP-18 it was 1.22 µM (inactive); in the experiment with KM-20L2, 1.88 µM (inactive); with LXFL 529 it was 1.22 µM (inactive); with RXF 631 it was 1.88 µM (inactive).

Take `CC(=O)O[C@H]1C(=O)[C@@]2(C)C([C@H](OC(=O)c3ccccc3)[C@]3(O)C[C@H](OC(=O)[C@H](O)[C@H](NC(=O)c4ccccc4)c4ccc(Cl)cc4)C(C)=C1C3(C)C)C1(OC(C)=O)CO[C@@H]1C[C@@H]2O` (stereo not given in full): the GI50 with DLD-1 was 0.00233 µM (active); in the experiment on DMS-273, 0.000111 µM (active); in the experiment with HOP-18, 0.0794 µM (active); in the experiment with KM-20L2 it was 0.00103 µM (active); with LXFL 529, 0.00191 µM (active); in the experiment on RXF 631, 0.104 µM (active). Also, the GI50 was 0.071 µM (active) in the experiment with SNB-78 and 0.00728 µM (active) in the experiment with XF498.

For `c1ccc(C(c2ccccc2)c2ccccn2)cc1`, the GI50 with DLD-1, in the experiment with DMS-273, with HOP-18, with KM-20L2, with RXF 631 and in the experiment on SNB-78 was > 100 µM (inactive) throughout. The GI50 with XF498 was > 100 µM (inactive).
